One test concerns the target β2AR-Gs complex (Homo sapiens, UniProt P07550, C265A/C327S/C341L/C378A/C406A/C77V/L266C/N148C). The test is classed as biochemical. The following applies: normalized to adrenaline.
The target in test [1] is labelled β2AR and biotinylated Gs (Homo sapiens, UniProt P07550, C265A/C327S/C341L/C378A/C406A/C77V/L266C/N148C). The test is classed as biochemical. The conditions noted are these: mean ± s.e.m.
Another test relates to β2AR. The conditions noted are these: compared to salbutamol, reference 27; cited from earlier work.
In test [2] the target is Cy3B*/Cy7*-labelled β2Δ6-N148C/L266C with Gs(GDP) (Homo sapiens, UniProt P07550, C265A/C327S/C341L/C378A/C406A/C77V/L266C/N148C). The test is classed as biochemical. The following applies: transition rate from high- to low-FRET states; saturating ligand, 30 μM GDP, Gs titration.

As for `CNCC(O)c1ccc(O)c(O)c1` (centres unmarked) [ADR, adrenaline], at β2AR-Gs complex (apparent EC50 for GDP binding), the η2 is 1.0. Besides, the η1 on β2AR-Gs complex (product of apparent kon and khigh→low) came to 1.0. Further, the “Lifetime, Biotin-Gs-immobilized, +GDP” value in test [1] (after addition of 30 μM GDP) came out at 11.8 ± 1.2 s. In test [1] (after addition of 100 μM GTP), the “Lifetime, Biotin-Gs-immobilized, +GTP” value is on record as 6.4 ± 0.1 s. Moreover, the “Lifetime, M1-immobilized” value in test [1] (biotin-M1-Fab-immobilized β2AR in the absence of Gs) is given as 13.2 ± 3.4 min. For the same compound, in test [1] (nucleotide-free state), the “Lifetime, Biotin-Gs-immobilized, GNP-free” value is on record as 11.2 ± 5.1 min. Besides, the “extent of [3H]GDP release” value with β2AR was “greater extent of [^3H]GDP release”. For the same compound, the khigh→low in test [2] was found to be 0.7 s⁻¹.

Source of the values: US11834489B2 (priority 2017, dated 2023).
